Experimental data taken from US10166225B2, “Method for treating osteoporosis” (Exelixis, Inc., priority 2011, dated 2019).
Where two headings read alike, the source gives them in different places.

Experiments:
[1] = system: human osteoclasts; test: Osteoclast activity assay (resorption index CTX/TRACP 5b); type: cell-based
Procedure: In the second part, the culture medium of human osteoclasts was replaced by new medium at day 7, and the formed mature osteoclasts were cultured for an additional 3 days, allowing them to resorb bone. Compound 1 was added into the culture medium at day 7. […] C-terminal cross-linked telopeptides of type I collagen (CTX) were measured in the culture medium collected at day 10 to quantitate bone resorption during days 7-10. […] was measured at day 7 to quantitate osteoclast number before Compound 1 was added. The CTX values were divided by the […] values, resulting as a resorption index that indicates mean osteoclast activity. […] The objective of this study was to investigate the effects of Compound 1 selected by the Sponsor on differentiation and activity of human osteoclasts and mouse osteoblasts in vitro. The effects on osteoclasts were studied using a model where bone marrow-derived human osteoclast precursor cells are cultured on bovine bone slices for 7 days in conditions favouring osteoclast differentiation, and allowed to differentiate into bone-resorbing osteoclasts. After completion of osteoclast differentiation at day 7, the culture medium was removed and new culture medium favouring osteoclast activity was added into the wells. The mature osteoclasts were then cultured for an additional 3 days, allowing them to resorb bone. In the osteoclast differentiation assay, the test compounds and a reference inhibitor osteoprotegerin (OPG) were added into cultures at day 0. In the osteoclast activity assay, the test compounds and a reference inhibitor E64 were added into cultures at day 7. Seven concentrations in 8 replicates were tested in both assays. Tartrate-resistant acid phosphatase 5b activity ([…]) was measured from the culture medium collected at day 7 as an index of the number of osteoclasts formed in each well during the differentiation period. C-terminal cross-linked telopeptides of type I collagen (CTX) was measured from the culture medium collected at day 10 to quantitate bone resorption during days 7-10. A human osteoclast culture system was developed for use in this study where CD34+ osteoclast precursor cells derived from human bone marrow (Poietics® Human Osteoclast Precursors, Lonza, Walkersville, USA) are cultured on bovine bone slices in the presence of appropriate growth factors, including M-CSF and RANK-ligand ([…] et al. 2009). The cells are first allowed to differentiate into mature bone-resorbing osteoclasts, and the formed osteoclasts are then allowed to resorb bone. The test and reference compounds are added into the cell cultures at the beginning of the differentiation and/or the resorption period, and their effects on the differentiation and/or resorbing activity of osteoclasts are determined. Secreted […] is determined from the culture medium after the differentiation period using a commercially available method (BoneTRAPÒ, IDS Ltd, Boldon, UK). Secreted […] describes accurately the number of osteoclasts formed in each well during the differentiation period. CTX is determined from the culture medium after the resorption period using a commercially available method (CrossLapsÒ for cultures, IDS Ltd, Boldon, UK). CTX describes accurately the amount of bone collagen degradation products released into the culture medium in each well during the resorption period. […] In this study, human bone marrow-derived CD34+ stem cells (10000 cells/well) were suspended in culture medium and allowed to attach to bovine bone slices in 96-well tissue culture plates. The culture medium (containing 10% FBS, OCP BulletKit® Lonza, Walkersville, USA) was supplemented with appropriate amounts of important growth factors favoring osteoclast differentiation and activity, including M-CSF (33 ng/ml, OCP BulletKit® Lonza, Walkersville, USA) and RANK-ligand (66 ng/ml, OCP BulletKit® Lonza, Walkersville, USA) in 200 μl of medium. The cells were incubated in a CO2 incubator in humidified atmosphere of 95% air and 5% carbon dioxide at 37° C. […]

[2] = system: KS483 mouse osteoprogenitor cells; test: Osteoblast activity assay (PINP at day 11, calcium deposition at day 13); type: cell-based; conditions: for activity at 0.004 µM / activity at 0.012 µM / activity at 0.037 µM / activity at 0.11 µM / activity at 0.33 µM / activity at 1 µM / activity at 3 µM: Mus musculus, Osteoblast; for activity at 0.004 µM: 0.004 μM Compound 1; for activity at 0.012 µM: 0.012 μM Compound 1; for activity at 0.037 µM: 0.037 μM Compound 1; for activity at 0.11 µM: 0.11 μM Compound 1; for activity at 0.33 µM: 0.33 μM Compound 1; for activity at 1 µM: 1.0 μM Compound 1; for activity at 3 µM: 3.0 μM Compound 1
Procedure: The effects on osteoblasts were studied using KS483 mouse osteoprogenitor cells that can be induced to differentiate into bone-forming osteoblasts. […] In the osteoblast differentiation assay, the cells were cultured for 8 days, after which the formed mature osteoblasts were quantitated by measuring the amount of intracellular alkaline phosphatase (ALP) activity. […] A culture system was established that can be used as an in vitro model for studying the effects of anabolic and estrogen-like compounds on osteoblast differentiation and activity. In this culture system mouse KS483 cells first proliferate and then differentiate into osteoblasts capable of forming mineralized bone nodules in the presence of ascorbic acid and ß-glycerophosphate (Fagerlund et al. 2009). The test and reference compounds are added into the cell cultures concomitantly with the medium change, and their effects on the differentiation and activity of osteoblasts are determined. Cellular ALP, a marker of osteoblast differentiation, is determined from the cell lysates as described earlier (Lowry et al. 1954). Secreted PINP, a marker of organic bone matrix formation, is determined from the culture medium using a commercially available method (Rat/Mouse PINP EIA, IDS Ltd, Boldon, UK). Calcium deposition, an index of inorganic bone matrix formation, is measured using a commercially available calcium assay (Roche Diagnostics). Mouse KS483 cells were cultured in T-75 tissue culture flasks in aMEM supplemented with 10% charcoal-stripped fetal bovine serum until 80-90% confluence. The cells were incubated in a CO2 incubator in humidified atmosphere of 95% air and 5% carbon dioxide at 37° C. After reaching 80-90% confluence, subcultures were prepared. Cells were removed from the flasks with trypsin treatment and counted. For induction of the maturation of osteoblasts and bone formation, the immature osteoblastic cells were plated in type I collagen-coated 96-well plates. The cells were cultured for 13 days with a supplement of ascorbic acid (50 μg/ml) and ß-glycerophosphate (5 mM), and half of the media was changed every 3-4 days. The test compound and control substance (E2) were added in the beginning of the culture period and when the medium was changed. Secreted PINP was measured from the culture medium at day 11 as a marker of organic bone matrix formation. The cultures were stopped at day 13 by removing the culture media from the wells and adding hydrochloric acid. Calcium deposited into the formed bone matrix was quantitated by using VICTOR2™ Multilabel Counter (PerkinElmer, Waltham, Mass., USA).

[3] = 0.004, 0.012, 0.037 and 0.11 μM
[4] = 264 h, read-out: PINP Activity at Day 11, Percent Activity (%) Compared to BL
[5] = 312 h, read-out: Calcium Deposition at Day 13, Percent Activity (%) Compared to BL

Compound: COc1cc2nccc(Oc3ccc(NC(=O)C4(C(=O)Nc5ccc(F)cc5)CC4)cc3)c2cc1OC [Compound 1, N-(4-{[6,7-bis(methyloxy)quinolin-4-yl]oxy}phenyl)-N′-(4-fluorophenyl)cyclopropane-1,1-dicarboxamide]
- activity at 0.004 µM ([1]; Homo sapiens, Osteoclast, 0.004 μM Compound 1, read-out: CTX at Day 10 and TRACP 5b Activity at Day 7 (CTX/TRACP 5b), Percent Activity (%) Compared to BL): 84%
- activity at 0.012 µM ([1]; Homo sapiens, Osteoclast, 0.012 μM Compound 1, read-out: CTX at Day 10 and TRACP 5b Activity at Day 7 (CTX/TRACP 5b), Percent Activity (%) Compared to BL): 104%
- activity at 0.037 µM ([1]; Homo sapiens, Osteoclast, 0.037 μM Compound 1, read-out: CTX at Day 10 and TRACP 5b Activity at Day 7 (CTX/TRACP 5b), Percent Activity (%) Compared to BL): 115%
- activity at 0.11 µM ([1]; Homo sapiens, Osteoclast, 0.11 μM Compound 1, read-out: CTX at Day 10 and TRACP 5b Activity at Day 7 (CTX/TRACP 5b), Percent Activity (%) Compared to BL): 107%
- activity at 0.33 µM ([1]; Homo sapiens, Osteoclast, 0.33 μM Compound 1, read-out: CTX at Day 10 and TRACP 5b Activity at Day 7 (CTX/TRACP 5b), Percent Activity (%) Compared to BL): 102%
- activity at 1 µM ([1]; Homo sapiens, Osteoclast, 1.0 μM Compound 1, read-out: CTX at Day 10 and TRACP 5b Activity at Day 7 (CTX/TRACP 5b), Percent Activity (%) Compared to BL): 111%
- activity at 3 µM ([1]; Homo sapiens, Osteoclast, 3.0 μM Compound 1, read-out: CTX at Day 10 and TRACP 5b Activity at Day 7 (CTX/TRACP 5b), Percent Activity (%) Compared to BL): 85%
- effect on osteoclast resorption activity ([1]; tested concentrations 0.004-3.0 μM): no effects
- bone forming activity of osteoblasts [2, 3]: dose-dependent stimulation
- calcium values [2, 3]: increased
- PINP values ([2]; 0.012 and 0.037 μM): increased
- PINP values ([2]; 0.33, 1.0 and 3.0 μM): decreased
- bone forming activity of osteoblasts ([2]; 0.33, 1.0 and 3.0 μM): inhibitory effects
- calcium values ([2]; 0.33, 1.0 and 3.0 μM): decreased
- activity at 0.004 µM [2, 4]: 117%
- activity at 0.012 µM [2, 4]: 122%
- activity at 0.037 µM [2, 4]: 135%
- activity at 0.11 µM [2, 4]: 101%
- activity at 0.33 µM [2, 4]: 73%
- activity at 1 µM [2, 4]: 42%
- activity at 3 µM [2, 4]: 21%
- activity at 0.004 µM [2, 5]: 145%
- activity at 0.012 µM [2, 5]: 167%
- activity at 0.037 µM [2, 5]: 180%
- activity at 0.11 µM [2, 5]: 144%
- activity at 0.33 µM [2, 5]: 59%
- activity at 1 µM [2, 5]: 12%
- activity at 3 µM [2, 5]: 4%
